Results published in patent publication US20250186405A1, “Compound For Use In Treating Narcolepsy” (Alkermes, Inc., priority 2023, published 2025).

System: subjects with narcolepsy type-2 (NT2)
Assay: Part 5 POC NT2: treatment-emergent adverse events, single doses, crossover
[1] = Total (any Compound A dose), N = 9

Experimental: Part 5 consisted of a 4-way, 4-period crossover study design in approximately 8 subjects (2 subjects per sequence; minimum of 4 subjects with 1 subject per sequence). Subjects were randomized 1:1:1:1 to 1 of 4 sequences with 4 treatment periods (3 single doses of Compound A and 1 dose of matching placebo), with up to 48 hours of washout between treatments. Treatments were administered under fasted state.
Subjects were randomized to 1 of 4 sequences. […] In each period, subjects were administered a single dose of study drug (either Compound A or placebo) as per the randomization schedule with approximately 240 mL of noncarbonated water following overnight fasting. No food was given for at least 3 hours after dose administration (i.e., fast can be broken after the 3-hour PK time point is collected). Water was allowed ad libitum except for 1 hour before and 1 hour after study drug administration. Safety assessments including AEs, safety ECGs, vital signs, and clinical laboratory tests were conducted, and plasma PK samples were collected. Furthermore, BP and HR were monitored once every hour for 12 hours on the dosing days.
Adverse events (AEs) and serious adverse events (SAEs) were monitored continuously until the completion of the study.
Nine subjects with NT2 were dosed in Part 5 (POC in NT2) in a randomized 4-sequence 4-period cross-over design. Each dose of Compound A or matching placebo was separated by 2 days. A 14-day washout period preceded the treatment period and included discontinuation of narcolepsy medications. All 9 subjects underwent the washout period and received at least one dose of Compound A. All subjects completed all 4-way randomized crossover periods.

CS(=O)(=O)N[C@H]1CCCN2C(=O)COc3ccccc3C3CCC(CC3)OCC12 (stereo partly drawn) [Compound A, N-[(4S,4aR,7α,10α)-1,2,3,4,4a,5,7,8,9,10,16,17-dodecahydro-17-oxo-7,10-ethanopyrido[1,2-d][1,7,4]benzodioxaazacyclotridecin-4-yl]methanesulfonamide]
Any SAEs (25 mg single dose, N = 9): 0 n (%)
Any TEAE (25 mg single dose, N = 9): 7 (77.8) n (%)
Death (25 mg single dose, N = 9): 0 n (%)
Drug Related TEAE by Preferred Term: Altered state of consciousness (25 mg single dose, N = 9): 0 n (%)
Drug Related TEAE by Preferred Term: Dizziness (25 mg single dose, N = 9): 2 (22.2) n (%)
Drug Related TEAE by Preferred Term: Dizziness postural (25 mg single dose, N = 9): 1 (11.1) n (%)
Drug Related TEAE by Preferred Term: Feeling jittery (25 mg single dose, N = 9): 1 (11.1) n (%)
Drug Related TEAE by Preferred Term: Headache (25 mg single dose, N = 9): 1 (11.1) n (%)
Drug Related TEAE by Preferred Term: Initial insomnia (25 mg single dose, N = 9): 0 n (%)
Drug Related TEAE by Preferred Term: Insomnia (25 mg single dose, N = 9): 2 (22.2) n (%)
Drug Related TEAE by Preferred Term: Photophobia (25 mg single dose, N = 9): 1 (11.1) n (%)
Drug Related TEAE by Preferred Term: Pollakiuria (25 mg single dose, N = 9): 3 (33.3) n (%)
Drug Related TEAE by Preferred Term: Tachycardia (25 mg single dose, N = 9): 0 n (%)
Drug Related TEAE by Preferred Term: Urinary incontinence (25 mg single dose, N = 9): 1 (11.1) n (%)
Subjects with at least one TEAE (25 mg single dose, N = 9): 7 (77.8) n (%)
Subjects with at least one treatment-related TEAE (25 mg single dose, N = 9): 6 (66.7) n (%)
TEAE by Highest Relationship: Not Related (25 mg single dose, N = 9): 1 (11.1) n (%)
TEAE by Highest Relationship: Related (25 mg single dose, N = 9): 6 (66.7) n (%)
TEAE by Highest Severity: Mild (25 mg single dose, N = 9): 6 (66.7) n (%)
TEAE by Highest Severity: Moderate (25 mg single dose, N = 9): 1 (11.1) n (%)
TEAE by Highest Severity: Severe (25 mg single dose, N = 9): 0 n (%)
TEAE by Preferred Term: Altered state of consciousness (25 mg single dose, N = 9): 0 n (%)
TEAE by Preferred Term: Constipation (25 mg single dose, N = 9): 0 n (%)
TEAE by Preferred Term: Contusion (25 mg single dose, N = 9): 1 (11.1) n (%)
TEAE by Preferred Term: Dizziness (25 mg single dose, N = 9): 2 (22.2) n (%)
TEAE by Preferred Term: Dizziness postural (25 mg single dose, N = 9): 1 (11.1) n (%)
TEAE by Preferred Term: Dry skin (25 mg single dose, N = 9): 0 n (%)
TEAE by Preferred Term: Feeling jittery (25 mg single dose, N = 9): 1 (11.1) n (%)
TEAE by Preferred Term: Headache (25 mg single dose, N = 9): 1 (11.1) n (%)
TEAE by Preferred Term: Initial insomnia (25 mg single dose, N = 9): 0 n (%)
TEAE by Preferred Term: Insomnia (25 mg single dose, N = 9): 2 (22.2) n (%)
TEAE by Preferred Term: Nasal dryness (25 mg single dose, N = 9): 1 (11.1) n (%)
TEAE by Preferred Term: Nausea (25 mg single dose, N = 9): 0 n (%)
TEAE by Preferred Term: Photophobia (25 mg single dose, N = 9): 1 (11.1) n (%)
TEAE by Preferred Term: Pollakiuria (25 mg single dose, N = 9): 3 (33.3) n (%)
TEAE by Preferred Term: Rash (25 mg single dose, N = 9): 0 n (%)
TEAE by Preferred Term: Skin lesion (25 mg single dose, N = 9): 0 n (%)
TEAE by Preferred Term: Tachycardia (25 mg single dose, N = 9): 0 n (%)
TEAE by Preferred Term: Urinary incontinence (25 mg single dose, N = 9): 1 (11.1) n (%)
Tolerability (NT2, 5, 12 and 25 mg): well tolerated
Subjects with at least one TEAE (NT2, N = 9, all periods): 77.8%
AE Leading to Study Drug Discontinuation [1]: 0 n (%)
Any SAEs [1]: 0 n (%)
Any TEAE [1]: 7 (77.8) n (%)
Death [1]: 0 n (%)
Drug Related TEAE by Preferred Term: Altered state of consciousness [1]: 0 n (%)
Drug Related TEAE by Preferred Term: Dizziness [1]: 2 (22.2) n (%)
Drug Related TEAE by Preferred Term: Dizziness postural [1]: 1 (11.1) n (%)
Drug Related TEAE by Preferred Term: Feeling jittery [1]: 1 (11.1) n (%)
Drug Related TEAE by Preferred Term: Headache [1]: 1 (11.1) n (%)
Drug Related TEAE by Preferred Term: Initial insomnia [1]: 1 (11.1) n (%)
Drug Related TEAE by Preferred Term: Insomnia [1]: 2 (22.2) n (%)
Drug Related TEAE by Preferred Term: Photophobia [1]: 1 (11.1) n (%)
Drug Related TEAE by Preferred Term: Pollakiuria [1]: 3 (33.3) n (%)
Drug Related TEAE by Preferred Term: Tachycardia [1]: 0 n (%)
Drug Related TEAE by Preferred Term: Urinary incontinence [1]: 1 (11.1) n (%)
Subjects with at least one TEAE [1]: 7 (77.8) n (%)
Subjects with at least one treatment-related TEAE [1]: 6 (66.7) n (%)
TEAE by Highest Relationship: Not Related [1]: 1 (11.1) n (%)
TEAE by Highest Relationship: Related [1]: 6 (66.7) n (%)
TEAE by Highest Severity: Mild [1]: 6 (66.7) n (%)
TEAE by Highest Severity: Moderate [1]: 1 (11.1) n (%)
TEAE by Highest Severity: Severe [1]: 0 n (%)
TEAE by Preferred Term: Altered state of consciousness [1]: 0 n (%)
TEAE by Preferred Term: Constipation [1]: 1 (11.1) n (%)
TEAE by Preferred Term: Contusion [1]: 1 (11.1) n (%)
TEAE by Preferred Term: Dizziness [1]: 2 (22.2) n (%)
TEAE by Preferred Term: Dizziness postural [1]: 1 (11.1) n (%)
TEAE by Preferred Term: Dry skin [1]: 1 (11.1) n (%)
TEAE by Preferred Term: Feeling jittery [1]: 1 (11.1) n (%)
TEAE by Preferred Term: Headache [1]: 1 (11.1) n (%)
TEAE by Preferred Term: Initial insomnia [1]: 1 (11.1) n (%)
TEAE by Preferred Term: Insomnia [1]: 2 (22.2) n (%)
TEAE by Preferred Term: Nasal dryness [1]: 1 (11.1) n (%)
TEAE by Preferred Term: Nausea [1]: 1 (11.1) n (%)
TEAE by Preferred Term: Photophobia [1]: 1 (11.1) n (%)
TEAE by Preferred Term: Pollakiuria [1]: 3 (33.3) n (%)
TEAE by Preferred Term: Rash [1]: 1 (11.1) n (%)
TEAE by Preferred Term: Skin lesion [1]: 1 (11.1) n (%)
TEAE by Preferred Term: Tachycardia [1]: 0 n (%)
TEAE by Preferred Term: Urinary incontinence [1]: 1 (11.1) n (%)
